The values that follow are results of earlier work, collected in patent US8329734B2, “Topical therapy for migraine” (AFGIN Pharma LLC, priority 2009, dated 2012).

`CNS(=O)(=O)Cc1ccc2[nH]cc(CCN(C)C)c2c1` [Sumatriptan, 3-(2-(dimethylamino)ethyl)-N-methyl-1H-indole-5-methanesulfonamide]: where the note is “in vivo”, the metabolism entry is on record as “metabolized by the MAO system”. For the compound `CNS(=O)(=O)CCc1ccc2[nH]cc(C3CCN(C)CC3)c2c1` [naratriptan], the oral bioavailability (oral) is ~70%. For `CN(C)CCc1c[nH]c2ccc(Cn3cncn3)cc12` [rizatriptan], where the note is “in vivo”, the metabolism entry is “metabolized by the MAO system”. Regarding `CN(C)CCc1c[nH]c2ccc(C[C@H]3COC(=O)N3)cc12` [zolmitriptan], under “in vivo”, the “crossing of intact blood-brain barrier” value is recorded as “does cross an intact blood-brain barrier” and the metabolism result is given as “metabolized by the MAO system”.
